Here are results for one compound from patent US10328033B2, “Methods and biocompatible compositions to achieve sustained drug release in the eye” (Integral Biosystems LLC, priority 2014, dated 2019).

The series can be described thus: Photo-oxidation stress by high intensity UV light. It counts as physicochemical. The settings on record: UV 254 nm, 24 hours, in buffer alone. Here is the method:
Nanomesh wafers (ML-ES-06-31) were tested for photo-oxidative degradation by high intensity UV light (254 nm, for 24 hours). […] In contrast, 50% of the travoprost in buffer alone was degraded under these conditions.

`CC(C)OC(=O)CCC/C=C\C[C@@H]1[C@@H](/C=C/[C@@H](O)COc2cccc(C(F)(F)F)c2)[C@H](O)C[C@@H]1O` [travoprost]: the travoprost degraded is 50%.
